# Laboratory results as given in US10874743B2, “IRAK degraders and uses thereof” (Kymera Therapeutics, Inc., priority 2017, dated 2020).
# Tests used:
# [1] = biological target: CRBN-DDB1 / GST-IRAK4 ternary complex (Homo sapiens, UniProt Q96SW2+Q9NWZ3); assay: AlphaLISA assay to determine ternary complex formation; assay type: binding
# Description: The assay mixture contains 100 nM CRBN-DDB1, 100 nM GST-IRAK4, 20 μg/mL Nickle Chelate Donor Bead (Perkin Elmer Catalog # AS101D) and 20 μg/mL GSH Acceptor Bead (Perkin Elmer Catalog # AL109C) in a buffer containing 50 mM HEPES, pH 7.5, 100 mM NaCl, 0.1% BSA, 2 mM TCEP, 0.05% Tween-20. […] AlphaLISA signals (Excitation 680 nm and emission 615 nm) were recorded on a Perkin Elmer EnVision 2104 Multilabel reader. The raw data was converted to the relative amount of ternary complex formation by normalization to the signal generated by His-tagged GST protein only. The final data points were plotted and the curves were fit using non-linear regression using GraphPad Prism software.
# [2] = biological target: T1, IRAK4 (Homo sapiens, UniProt Q9NWZ3); assay: OCI-LY-10 degradation assay (western blot, % IRAK4 degraded after 4 hours); assay type: cell-based; design: endogenous in cells; host or cells: OCI-LY10; settings: OCI-LY10 cells, IRAK4 degraded after 4 hours, western blot
# T1 sequence (Q9NWZ3 1-460): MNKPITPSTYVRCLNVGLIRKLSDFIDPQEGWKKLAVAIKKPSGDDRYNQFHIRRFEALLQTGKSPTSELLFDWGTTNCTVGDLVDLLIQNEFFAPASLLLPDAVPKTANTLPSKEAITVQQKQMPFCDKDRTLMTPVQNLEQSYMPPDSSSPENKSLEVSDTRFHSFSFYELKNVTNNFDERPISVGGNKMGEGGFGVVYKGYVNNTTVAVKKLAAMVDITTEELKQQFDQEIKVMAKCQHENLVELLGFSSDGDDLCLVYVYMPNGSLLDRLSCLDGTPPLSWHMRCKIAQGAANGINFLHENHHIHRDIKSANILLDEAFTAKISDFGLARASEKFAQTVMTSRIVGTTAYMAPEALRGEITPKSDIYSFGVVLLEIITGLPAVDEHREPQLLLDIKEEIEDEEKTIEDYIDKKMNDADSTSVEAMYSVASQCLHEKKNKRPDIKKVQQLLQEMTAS
# In short: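 IRAK4 loss after 4 h at 37° C was scored A (>50%), B (>20-50%) or C (<20%) from infrared western blots of RIPA lysates, 20-25 μg protein per lane. Compound was applied at 0.003-10 μM final to OCI-LY10 cells cultured in RPMI-1640 with 20% FBS and 55 μM 2-ME.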
# [3] = biological target: T1, IRAK4; assay: PBMC degradation assay (western blot, % IRAK4 degraded after 4 hours); assay type: cell-based; settings: human PBMCs
# Description: Protocol summary of PBMC degradation studies from compound treatment through quantitation.
# PBMC culture medium: Human peripheral blood mononuclear cells (PBMCs): RPMI+10% FBS (Heat-inactivated)+1% P/S.
# Cells were cultured at a minimum of 2.5×10^6 c/mL. • PBMCs were incubated @ 37° C./5% CO2 and allowed to rest overnight. • Following overnight recovery, a cell count/viability assessment by trypan blue exclusion was performed. Cells densities were adjusted back to 2.5×10^6 c/mL (proceed with plating only if viability >80%). • In a 6 well plate, 2.0 mL of cells were added to each well for a minimum of 5×10^6 CT per treatment condition. Compounds dilutions were prepared from 20 mM stock and were added at a final 1000× dilution (0.1% DMSO concentration). • At the end of treatment, cells were harvested and spun @ 1800 rpm for 5 min. 1×PBS wash and spun again @ 1800 rpm for 5 min. Cell pellets were frozen and stored at −80° C. until further processing. • Lysates were generated by resuspending in lysis buffer. Protein quantification was performed with a BCA kit. • 20 μg of protein were loaded per lane and run on a 26-well 4-12% Bis-Tris SDS-page gel. • Transfers were performed on PVDF membranes using the BioRad Mixed MW turbo program for 7 min. • Membranes were blocked for one hour on a rocker at room temperature. • Primary antibodies were incubated overnight at 4° C. on a rocker. • Membranes were washed 3×TBST, 5 min each. • Secondaries were added and incubated for one hour on a rocker at room temperature. • Membranes were washed 3×TBST, 5 min each and rinsed well with deionized H2O. Membranes were scanned using the Licor Odessey CLx and bands were quantified using Image Studio Lite Version 5.2 software.
# PBMC results at 4 hours. The letter codes indicate the percentage of IRAK4 degraded after 4 hours: A (>50% degradation), B (>20-50% degradation) and C (<20% degradation)
# Sequence of CRBN-DDB1 / GST-IRAK4 ternary complex (Q96SW2 whole entry, one chain of several): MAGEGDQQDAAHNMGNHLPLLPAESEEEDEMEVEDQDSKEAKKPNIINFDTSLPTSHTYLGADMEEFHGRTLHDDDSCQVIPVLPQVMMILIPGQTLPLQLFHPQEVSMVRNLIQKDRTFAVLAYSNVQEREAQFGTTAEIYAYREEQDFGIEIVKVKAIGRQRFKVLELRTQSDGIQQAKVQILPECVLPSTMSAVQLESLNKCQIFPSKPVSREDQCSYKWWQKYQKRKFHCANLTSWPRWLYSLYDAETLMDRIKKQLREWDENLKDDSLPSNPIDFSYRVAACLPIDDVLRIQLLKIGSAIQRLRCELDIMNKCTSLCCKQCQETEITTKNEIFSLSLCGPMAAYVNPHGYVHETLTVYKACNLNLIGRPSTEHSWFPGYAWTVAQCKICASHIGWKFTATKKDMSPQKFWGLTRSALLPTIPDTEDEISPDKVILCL
# Sequence of CRBN-DDB1 / GST-IRAK4 ternary complex (Q16531 whole entry partner, one chain of several): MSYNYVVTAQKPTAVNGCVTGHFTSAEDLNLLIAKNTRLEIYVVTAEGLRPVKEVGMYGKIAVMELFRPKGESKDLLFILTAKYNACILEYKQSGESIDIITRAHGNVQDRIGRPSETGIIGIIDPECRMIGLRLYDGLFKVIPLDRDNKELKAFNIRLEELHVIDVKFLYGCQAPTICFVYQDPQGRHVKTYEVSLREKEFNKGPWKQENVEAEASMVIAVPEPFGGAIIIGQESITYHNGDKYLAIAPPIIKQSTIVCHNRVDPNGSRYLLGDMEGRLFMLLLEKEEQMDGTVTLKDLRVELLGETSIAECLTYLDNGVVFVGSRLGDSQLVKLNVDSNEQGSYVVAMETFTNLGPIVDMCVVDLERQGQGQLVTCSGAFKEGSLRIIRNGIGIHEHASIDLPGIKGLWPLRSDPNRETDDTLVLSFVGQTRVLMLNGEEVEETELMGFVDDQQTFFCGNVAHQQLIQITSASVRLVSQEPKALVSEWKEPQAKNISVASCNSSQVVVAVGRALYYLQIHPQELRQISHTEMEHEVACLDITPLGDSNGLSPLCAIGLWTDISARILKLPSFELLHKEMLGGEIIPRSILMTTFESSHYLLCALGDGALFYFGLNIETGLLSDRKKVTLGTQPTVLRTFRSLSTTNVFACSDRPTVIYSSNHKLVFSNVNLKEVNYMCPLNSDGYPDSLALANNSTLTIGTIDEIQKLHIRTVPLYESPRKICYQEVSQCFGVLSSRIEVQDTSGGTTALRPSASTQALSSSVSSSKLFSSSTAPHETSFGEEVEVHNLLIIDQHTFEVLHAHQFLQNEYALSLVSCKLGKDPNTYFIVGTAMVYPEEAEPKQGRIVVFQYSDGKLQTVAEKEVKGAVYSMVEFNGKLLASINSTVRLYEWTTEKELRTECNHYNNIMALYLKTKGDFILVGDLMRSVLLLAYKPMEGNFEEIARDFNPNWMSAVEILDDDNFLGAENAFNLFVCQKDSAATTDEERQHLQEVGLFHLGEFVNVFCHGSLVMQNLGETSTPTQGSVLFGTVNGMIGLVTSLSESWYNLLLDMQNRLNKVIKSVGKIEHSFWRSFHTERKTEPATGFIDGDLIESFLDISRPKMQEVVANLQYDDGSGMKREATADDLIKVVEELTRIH
compound,measurement,setting,value
NC(=O)c1nn(-c2cccc(C(=O)NCCOCCOCCNc3cccc4c3C(=O)N(C3CCC(=O)NC3=O)C4=O)c2)cc1NC(=O)c1coc(-c2ccnc(NCC(F)(F)F)c2)n1 (centres unmarked) [I-135],Average % Ternary Complex (N = 2),[1]; compound concentration 1.00E−07 M,4.16%
same,Average % Ternary Complex (N = 2),[1]; compound concentration 1.25E−08 M,0.76%
same,Average % Ternary Complex (N = 2),[1]; compound concentration 1.28E−05 M,0.61%
same,Average % Ternary Complex (N = 2),[1]; compound concentration 1.60E−06 M,0.67%
same,Average % Ternary Complex (N = 2),[1]; compound concentration 2.00E−07 M,6.15%
same,Average % Ternary Complex (N = 2),[1]; compound concentration 2.50E−08 M,1.05%
same,Average % Ternary Complex (N = 2),[1]; compound concentration 3.20E−06 M,0.57%
same,Average % Ternary Complex (N = 2),[1]; compound concentration 4.00E−07 M,4.22%
same,Average % Ternary Complex (N = 2),[1]; compound concentration 5.00E−08 M,2.54%
same,Average % Ternary Complex (N = 2),[1]; compound concentration 6.25E−09 M,0.55%
same,Average % Ternary Complex (N = 2),[1]; compound concentration 6.40E−06 M,0.5%
same,Average % Ternary Complex (N = 2),[1]; compound concentration 8.00E−07 M,1.25%
same,OCI-LY10 % IRAK4 Degradation,[2],B (>20-50% degradation)
"NC(=O)c1nn(-c2ccc(C(=O)NCc3cn(CCCNc4cccc5c4C(=O)N(C4CCC(=O)NC4=O)C5=O)nn3)cc2)cc1NC(=O)c1coc(-c2ccnc(NCC(F)(F)F)c2)n1 (centres unmarked) [I-180, N-[3-carbamoyl-1-[4-[[1-[3-[[2-(2,6-dioxo-3-piperidyl)-1,3-dioxo-isoindolin-4-yl]amino]propyl]triazol-4-yl]methylcarbamoyl]phenyl]pyrazol-4-yl]-2-[2-(2,2,2-trifluoroethylamino)-4-pyridyl]oxazole-4-carboxamide]",PBMC % IRAK4 Degradation,[3],A (>50% degradation)
NC(=O)c1nn(-c2ccc(C(=O)NCCCCCCCCCCCNc3cccc4c3C(=O)N(C3CCC(=O)NC3=O)C4=O)cc2)cc1NC(=O)c1coc(-c2ccnc(NCC(F)(F)F)c2)n1 (centres unmarked) [I-133],PBMC % IRAK4 Degradation,[3],B (>20-50% degradation)
NC(=O)c1nn(-c2ccc(C(=O)NCCCOCCCNc3cccc4c3C(=O)N(C3CCC(=O)NC3=O)C4=O)cc2)cc1NC(=O)c1coc(-c2ccnc(NCC(F)(F)F)c2)n1 (centres unmarked) [I-141],PBMC % IRAK4 Degradation,[3],A (>50% degradation)
NC(=O)c1nn(-c2ccc(C(=O)NCCCCCCCCNC(=O)COc3cccc4c3C(=O)N(C3CCC(=O)NC3=O)C4=O)cc2)cc1NC(=O)c1coc(-c2ccnc(NCC(F)(F)F)c2)n1 (centres unmarked) [I-109],PBMC % IRAK4 Degradation,[3],B (>20-50% degradation)
